Measurements: the supplement of paper PMC10307832

Key:
Experiment in all cases: relative viability (nuclei count vs DMSO), 5 days (fraction); higher = more cells survive
[1] = test system: NCI-H1650
How it was run: (§1)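 Relative viability was taken as the ratio of nuclei in treated wells to nuclei in vehicle wells. Lung cancer cell lines in 1536-well plates received compounds by pin tool one day after seeding, either one drug alone or a fixed anchor-drug dose plus five library-drug doses (not always all listed) in √10 steps. Nuclei were counted on 4× images after 5 days of treatment, and values are medians of duplicate plates.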

[2] = test system: NCI-H441
How it was run: as §1

[3] = test system: LC-2-ad
How it was run: as §1

[4] = test system: LCLC-97TM1
How it was run: as §1

[5] = test system: PC-3 [JPC-3]
How it was run: as §1

[6] = test system: CAL-12T
How it was run: as §1

[7] = test system: NCI-H2087
How it was run: as §1

[8] = test system: NCI-H2023
How it was run: as §1

[9] = test system: 201T
How it was run: as §1

[10] = test system: BEN
How it was run: as §1

[11] = test system: H3255
How it was run: as §1

[12] = test system: NCI-H661; conditions: first compound 0.000632 µM
How it was run: as §1

CC(=O)O[C@@]12CO[C@@H]1C[C@H](O)[C@@]1(C)C(=O)[C@H](O)C3=C(C)[C@@H](OC(=O)[C@H](O)[C@@H](NC(=O)OC(C)(C)C)c4ccccc4)C[C@@](O)([C@@H](OC(=O)c4ccccc4)[C@H]21)C3(C)C [Docetaxel] + C[C@@H](Oc1cc(-c2cnn(C3CCNCC3)c2)cnc1N)c1c(Cl)ccc(F)c1Cl [Crizotinib] (partner 1 µM)
relative viability ([1]; first compound 0.0002 µM): 0.906
relative viability ([1]; first compound 0.000632 µM): 0.398
relative viability ([1]; first compound 0.002 µM): 0.206
relative viability ([1]; first compound 0.006325 µM): 0.185
relative viability ([1]; first compound 0.02 µM): 0.141
relative viability ([2]; first compound 0.0002 µM): 0.802
relative viability ([2]; first compound 0.000632 µM): 0.472
relative viability ([2]; first compound 0.002 µM): 0.29
relative viability ([2]; first compound 0.006325 µM): 0.193
relative viability ([2]; first compound 0.02 µM): 0.181
relative viability ([3]; first compound 0.0002 µM): 0.388
relative viability ([3]; first compound 0.000632 µM): 0.342
relative viability ([3]; first compound 0.002 µM): 0.318
relative viability ([3]; first compound 0.006325 µM): 0.389
relative viability ([3]; first compound 0.02 µM): 0.222
relative viability ([4]; first compound 0.000632 µM): 0.178
relative viability ([4]; first compound 0.002 µM): 0.115
relative viability ([4]; first compound 0.006325 µM): 0.139
relative viability ([4]; first compound 0.02 µM): 0.12
relative viability ([5]; first compound 0.0002 µM): 0.966
relative viability ([5]; first compound 0.000632 µM): 0.918
relative viability ([5]; first compound 0.002 µM): 0.635
relative viability ([5]; first compound 0.006325 µM): 0.223
relative viability ([5]; first compound 0.02 µM): 0.172
relative viability ([6]; first compound 0.0002 µM): 0.717
relative viability ([6]; first compound 0.000632 µM): 0.341
relative viability ([6]; first compound 0.002 µM): 0.146
relative viability ([6]; first compound 0.02 µM): 0.096
relative viability ([7]; first compound 0.0002 µM): 0.854
relative viability ([7]; first compound 0.000632 µM): 0.684
relative viability ([7]; first compound 0.002 µM): 0.334
relative viability ([7]; first compound 0.006325 µM): 0.182
relative viability ([7]; first compound 0.02 µM): 0.156
relative viability ([8]; first compound 0.0002 µM): 0.587
relative viability ([8]; first compound 0.000632 µM): 0.451
relative viability ([8]; first compound 0.002 µM): 0.123
relative viability ([8]; first compound 0.006325 µM): 0.096
relative viability ([8]; first compound 0.02 µM): 0.0789
relative viability ([9]; first compound 0.0002 µM): 0.983
relative viability ([9]; first compound 0.000632 µM): 1.03
relative viability ([9]; first compound 0.002 µM): 0.908
relative viability ([9]; first compound 0.006325 µM): 0.646
relative viability ([9]; first compound 0.02 µM): 0.5
relative viability ([10]; first compound 0.0002 µM): 0.859
relative viability ([10]; first compound 0.000632 µM): 0.809
relative viability ([10]; first compound 0.002 µM): 0.42
relative viability ([10]; first compound 0.006325 µM): 0.222
relative viability ([11]; first compound 0.0002 µM): 0.654
relative viability ([11]; first compound 0.000632 µM): 0.757
relative viability ([11]; first compound 0.002 µM): 0.376
relative viability ([11]; first compound 0.006325 µM): 0.267
relative viability ([11]; first compound 0.02 µM): 0.252
relative viability [12]: 1.06
